Assay results taken from patent publication US20100093616A1 (priority 2005, published 2010).

Legend:
Assay type in all cases: in vivo, Lewis Rats
[1] = system: Experimental Autoimmune Encephalytis (EAE); experiment: Prophylactic scheme in EAE animal model (Example 2); conditions: for Clinical scores maximum / Clinical scores minimum / Incidence (%): EGF/GHRP-6 200-740, EGF 200, GHRP-6 740 μg/kg/day; for N° of perivascular inflammatory infiltrates (Means ± SD): brain and spinal cord, day 40, EGF/GHRP-6 200-740, EGF 200, GHRP-6 740 μg/kg/day; for Incidence (%): i.p. days -10 to -1 before first immunization, 8 rats per group
From the text: (§1) This prophylactic scheme was followed for 10 days (−10 to −1 day before the first immunization), using the intraperitoneal administration route. Clinical scores was based on the following grading: 0; no symptom, 1; tail paralysis, 2; paralysis of any of the hind limbs, 3; full paralysis of the hind limbs, 4; complete paralysis of the fore and hind limbs 5; moribund or death. Weight loss and vesical and rectal sphincter incontinency, which are also clinical signs of the disease, are scored by adding 0.5 to the clinical index previously described. Forty days after the first immunization the animals were anesthetized and euthanized, the encephalon and spinal cord were processed for histopathological study (10% de formalin, H & E y Luxol Blue staining). For the histopathological analysis the following parameters were consider: number and size of perivascular inflammatory infiltrates, number of demyelination lesions, number of apoptotic neurons and glial cells and astrocytes reactivity. The microscopic study was blindly conducted.

[2] = system: Experimental Autoimmune Encephalytis (EAE); experiment: Therapeutical effect in EAE biomodel (Example 1); conditions: therapeutical scheme; for N° of perivascular inflammatory infiltrates (Means ± SD): brain and spinal cord, day 40; for Incidence (%): i.p. 10 days from day 10 after first immunization, EGF/GHRP-6 200-740 μg/kg/day, EGF 200 μg/kg/day, GHRP-6 740 μg/kg/day, 8 rats per group
Method: as §1, with “Female Lewis Rats (130 g), were subcutaneously immunized with guinea pig spinal cord homogenate (5 mg) in PBS (50%) and complete Freund adjuvant (50%), during days 0 and 6. […] This” for “This”, “therapeutical” for “prophylactic”, “days,” for “days (−10 to −1 day before the first immunization),”, “using” for “using the”, “administration.” for “administration route.”

[3] = system: Experimental Autoimmune Encephalytis (EAE); experiment: Dose study of the combination in EAE model, therapeutical scheme (Example 3); conditions: EGF component of the combination
Method: Looking for a range of doses for the pharmaceutical combination that would be efficient for the therapeutic effects, it was used in the afore mentioned EAE model Female Lewis Rats (130 g), were subcutaneously immunized with guinea pig spinal cord homogenate (5 mg) in PBS (50%) and complete Freund adjuvant (50%), during days 0 and 6.
as §1, with “therapeutical” for “prophylactic”, “days,” for “days (−10 to −1 day before the first immunization),”, “using” for “using the”, “administration.” for “administration route.”

[4] = i.p. days -10 to -1, EGF/GHRP-6 200-740, EGF 200, GHRP-6 740 μg/kg/day
[5] = EGF/GHRP-6 200-740, EGF 200, GHRP-6 740 μg/kg/day
[6] = i.p. 10 days, EGF/GHRP-6 200-740, EGF 200, GHRP-6 740 μg/kg/day
[7] = i.p. 10 days, EGF/GHRP-6 200-740, EGF 200, GHRP-6 740 μg/kg/day, scale 0-5

Substance	Clinical scores maximum ([1]; scale 0-5)	Clinical scores minimum ([1]; scale 0-5)	N° of perivascular inflammatory infiltrates (Means ± SD) [1]	Days of Debut (Mean ± SD) [1, 4] [days]	Clinical scores Means ± SD (mean clinical index) ([1]; i.p. days -10 to -1, EGF/GHRP-6 200-740, EGF 200, GHRP-6 740 μg/kg/day, scale 0-5)	Incidence (%) [1] [%]	N° of perivascular inflammatory infiltrates (Means ± SD) [2, 5]	Incidence (%) [2] [%]	Days of Debut (Mean ± SD) [2, 6] [days]	Disease duration [2, 6]	Clinical Scores Mean ± SD (mean clinical index) [2, 7]	Clinical scores maximum [2, 7]	Clinical scores minimum [2, 7]	dose range that maintains usefulness of the combination for protection against induction of EAE [3] [µg/kg/day]
His-D-Trp-Ala-Trp-D-Phe-Lys-NH sub 2 [GHRP-6]	4	1	2.7 ± 1.95	11.7 ± 2.3	2.7±1.03	100	2.25 ± 1.25	100	13.7 ± 2.3	15.5 ± 6.7	1.5±1.6	4	0.5	
Epidermal Growth Factor [EGF]	4	1	4 ± 1.6	11.5 ± 0.57		100	4.5 ± 1.9	100	12.5 ± 0.57	12.7 ± 4.1			1	50 to 400
